In patent US4734280A, “Treatment or prevention of PAF Acether-induced maladies” (priority 1984, dated 1988):
Where two headings read alike, the source gives them in different places.

Key:
PAF-Acether receptor = molecular target: T1, PAF-Acether receptor (Oryctolagus cuniculus, UniProt G1TEI7); assay: Competition with 3H-PAF Acether binding, rabbit membrane platelet preparation
T1 construct: using a rabbit membrane platelet preparation; from tissue; host or cells: rabbit platelets (membrane preparation)
From the text: The competition of the alternative binding of either ^3 H-PAF Acether or one of the Ginkgolides was evidenced by radioactive determinations using a rabbit membrane platelet preparation. (100% control=^3 H-PAF Acether alone).

[1] = test system: rabbit plasma-rich platelets (PRP); assay: Inhibition of PAF Acether-induced PA, rabbit PRP in vitro; type: cell-based; settings: Oryctolagus cuniculus, Platelet, average of 10 assays, read-out: IC50 doses on PAF Acether-induced rabbit PA (PRP)
Method: (§1) The Inhibition of PAF Acether-induced PA has been studied on rabbit plasma-rich platelets (PRP). Two doses of PAF Acether were used (2.5 nM and 5 nM). The tested compound was added to the medium 3 minutes before PAF Acether and aggregation was followed by monitoring changes in electrical impedance (Whole-Blood aggregometer-chrono-Log); kadsurenone was simultaneously tested as reference compound and the IC50 molar doses of Ginkgolides A, B, C and M and of kadsurenone on PAF Acether-induced rabbit PA (PRP) have been calculated.
The results obtained are presented in the following table (average values for 10 assays for each dose) and FIG. 1: […]

[2] = test system: rabbit plasma-rich platelets (PRP); assay: Aggregation induced by other known aggregants (ADP, thrombine, calcium ionophore A 23187, collagen, adrenaline); type: cell-based; settings: calcium ionophore A 23187, collagen and adrenaline
rabbit platelets = assay: Ex vivo PAF Acether-induced rabbit PA after per os or IV administration; type: in vivo; settings: for activity at 0.5 mg/kg / activity at 1 mg/kg / activity at 2 mg/kg: Oryctolagus cuniculus, Platelet, iv, read-out: PAF Acether-induced rabbit PA (% of control); for activity at 0.5 mg/kg: IV 0.5 mg/kg; for activity at 1 mg/kg: IV 1 mg/kg; for activity at 2 mg/kg: IV 2 mg/kg
Method: Drugs were administered per os (2,5 and 10 mg/kg) or by IV route (0.5, 1, 2 mg/kg) and blood samples were taken at different times to test platelet aggregation with PAF-Acether ([…]) (see following table wherein the figures appearing are the ratio to the control with the solvent used, i.e. DMSO).

human PRP = assay: Inhibition of PAF Acether-induced PA, human PRP in vitro; type: cell-based; settings: PAF Acether 100 nM, read-out: IC Doses (PAF Acether-induced PA, human PRP)
Method: as §1
The inhibition of PAF Acether-induced PA has been studied on human PRP. The same protocol was used as for rabbit hereinabove.

human washed platelets = assay: Inhibition of PAF Acether-induced PA, human washed platelets; type: cell-based; settings: Platelet, average values of 5 assays
From the text: The inhibition of PAF Acether-induced PA was also experimented using human washed platelets on Ginkgolides A, B, and C.
Best figure for IC50 was obtained with Ginkgolide B (GK B) (average values of 5 assays) with 2.5 10^-5 M.

[3] = test system: guinea-pig mesenteric artery; assay: Opto-electronic follow-up of PAF Acether-induced thrombus, guinea-pig mesenteric artery; type: in vivo
From the text: In this experimental study, 20 guinea-pigs were used. […] Briefly summarized, this method consists in the dissection over a distance of 2 to 3 mm of a branch of the mesenteric artery following gently extraction of a loop of small intestine. By transillumination, the image of this arterial segment is projected onto a set of 30 light-depending resistances (LDR) arranged in two columns of 15 elements each. An LDR element has the property to change its internal resistance as a function of a variation of light intensity. Each LDR is connected into its own Wheatstone bridge, and the changes in light intensity due to thrombus formation will be recorded as variations in electrical potentials and registered as such via a multiplexing device.
In the present investigation, several discriminating parameters are recorded: (a) the t1 interval or the lag period (this is the time interval between the beginning of the PAF Acether superfusion and the first signs of thrombus formation; (b) the td interval is the duration of the thrombotic phenomenon; (c) the O(t) curve indicates the number of LDR elements covered by the thrombus image; (d) the D(t) curve represents during each 30×1/9×10^-2 sec interval the greatest potential deviation on one of the LDR elements covered by the thrombus image; (e) the T(t) curve represents the summation of the potentials registered on the LDR elements during a time interval of 30×1/9×10^-2 sec the TTV(t) curve results from the integration of the T(t) values in function of time; (f) mD, mT, and mO correspond to the maximal values registered on, respectively, the D(t), T(t), and O(t) curves; (g) TTV is the maximal value of the TTV(t) curve, whereas TVM is the value of this curve up to the point where mT is reached.
In a first series of experiments (10 animals) the effect of local superfusion with PAF Acether (10^-4 M) is investigated.
In a second series of experiments (10 animals) the effects of Ginkgolide B and of kadsurenone have been compared preventively and curatively.

New-Zealand rabbits = assay: PAF Acether-induced shock in the rabbit; type: in vivo; settings: for Extravasation (O.D.): 2 mg/kg IV perfusion, 30 mn, optical density at 590 nm, average of 10 animals
Method: Treatment: Tested compounds (Gingkolides A, B and C) or vehicle were perfused in the ear vein in 45 ml NaCl 0.9% for 1 hour before PAF Acether injection. Vehicle consisted of 1.5 ml of propylene glycol completed to 45 ml by isotonic NaCl buffer; Ginkgolides were administered at the dose of 2 mg/kg IV; the figures reported in the following table are the average values of the 10 animals of each batch.

[4] = 0.5 h, PAF Acether 2.5 nM, 0.5 h
[5] = 0.5 h, PAF Acether 5.0 nM, 0.5 h
[6] = 2 mg/kg IV, PAF Acether 2 and 4 nmol/kg, 10 animals per batch

T1 sequence (G1TEI7 1-342): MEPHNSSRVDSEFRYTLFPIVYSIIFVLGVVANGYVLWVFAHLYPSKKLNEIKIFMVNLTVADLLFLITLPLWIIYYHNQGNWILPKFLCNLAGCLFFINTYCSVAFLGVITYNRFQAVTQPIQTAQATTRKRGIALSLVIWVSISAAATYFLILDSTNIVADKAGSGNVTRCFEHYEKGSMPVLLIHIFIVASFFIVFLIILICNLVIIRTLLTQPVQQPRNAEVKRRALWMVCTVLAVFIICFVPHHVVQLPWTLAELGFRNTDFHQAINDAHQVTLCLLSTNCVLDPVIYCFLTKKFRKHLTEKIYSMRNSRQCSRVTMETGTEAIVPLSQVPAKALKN

Compound: CC1C(=O)OC2C(O)C34C5CC(C(C)(C)C)C36C(OC(=O)C6O)OC4(C(=O)O5)C12O (stereo not drawn) [Ginkgolide B]
- IC50 (PAF-Acether receptor; rabbit membrane platelet preparation): 0.575 µM
- inhibition at 1 µM (PAF-Acether receptor; read-out: reduction of 3H-PAF Acether binding): 94%
- IC50 ([1]; PAF Acether 2.5 nM): 1.88 µM
- IC50 ([1]; PAF Acether 5 nM): 3.2 µM
- effect against aggregation induced by other known aggregants [2]: totally ineffective
- activity at 0.5 mg/kg (rabbit platelets; [4]): 0%
- activity at 0.5 mg/kg (rabbit platelets; [5]): 0%
- activity at 1 mg/kg (rabbit platelets; [4]): 0%
- activity at 1 mg/kg (rabbit platelets; [5]): 0%
- activity at 2 mg/kg (rabbit platelets; [4]): 0%
- activity at 2 mg/kg (rabbit platelets; [5]): 0%
- activity at 0.5 mg/kg (rabbit platelets; 1 h, PAF Acether 2.5 nM, 1 h): 7.4%
- activity at 0.5 mg/kg (rabbit platelets; 1 h, PAF Acether 5.0 nM, 1 h): 9.4%
- activity at 1 mg/kg (rabbit platelets; 1 h, PAF Acether 2.5 nM, 1 h): 0%
- activity at 1 mg/kg (rabbit platelets; 1 h, PAF Acether 5.0 nM, 1 h): 1.1%
- activity at 2 mg/kg (rabbit platelets; 1 h, PAF Acether 2.5 nM, 1 h): 0%
- activity at 2 mg/kg (rabbit platelets; 1 h, PAF Acether 5.0 nM, 1 h): 0%
- activity at 0.5 mg/kg (rabbit platelets; 2 h, PAF Acether 2.5 nM, 2 h): 11.2%
- activity at 0.5 mg/kg (rabbit platelets; 2 h, PAF Acether 5.0 nM, 2 h): 14.5%
- activity at 1 mg/kg (rabbit platelets; 2 h, PAF Acether 2.5 nM, 2 h): 4.1%
- activity at 1 mg/kg (rabbit platelets; 2 h, PAF Acether 5.0 nM, 2 h): 7.2%
- activity at 2 mg/kg (rabbit platelets; 2 h, PAF Acether 2.5 nM, 2 h): 0%
- activity at 2 mg/kg (rabbit platelets; 2 h, PAF Acether 5.0 nM, 2 h): 0%
- PAF Acether-induced rabbit PA (% of control) (rabbit platelets; per os 2 mg/kg, PAF Acether 2.5 nM, 0.5 h): 23%
- PAF Acether-induced rabbit PA (% of control) (rabbit platelets; per os 2 mg/kg, PAF Acether 2.5 nM, 1 h): 37%
- PAF Acether-induced rabbit PA (% of control) (rabbit platelets; per os 2 mg/kg, PAF Acether 2.5 nM, 2 h): 54%
- PAF Acether-induced rabbit PA (% of control) (rabbit platelets; per os 2 mg/kg, PAF Acether 5.0 nM, 0.5 h): 34.5%
- PAF Acether-induced rabbit PA (% of control) (rabbit platelets; per os 2 mg/kg, PAF Acether 5.0 nM, 1 h): 47.8%
- PAF Acether-induced rabbit PA (% of control) (rabbit platelets; per os 2 mg/kg, PAF Acether 5.0 nM, 2 h): 71.2%
- PAF Acether-induced rabbit PA (% of control) (rabbit platelets; per os 5 mg/kg, PAF Acether 2.5 nM, 1 h): 7%
- PAF Acether-induced rabbit PA (% of control) (rabbit platelets; per os 5 mg/kg, PAF Acether 2.5 nM, 2 h): 10%
- PAF Acether-induced rabbit PA (% of control) (rabbit platelets; per os 5 mg/kg, PAF Acether 5.0 nM, 0.5 h): 6%
- PAF Acether-induced rabbit PA (% of control) (rabbit platelets; per os 5 mg/kg, PAF Acether 5.0 nM, 1 h): 11.4%
- PAF Acether-induced rabbit PA (% of control) (rabbit platelets; per os 5 mg/kg, PAF Acether 5.0 nM, 2 h): 27.1%
- IC50 (human PRP): 56 µM
- IC50 (human washed platelets): 25 µM
- thrombus formation when superfused with PAF Acether (preventive) ([3]; PAF Acether superfusion): no thrombus appeared
- time for disappearance of pre-formed thrombus (curative) ([3]; PAF Acether-induced thrombus): 2.30 min
- Extravasation (O.D.) (New-Zealand rabbits; PAF Acether 2 nmol/kg): 0.827 O.D.
- Extravasation (O.D.) (New-Zealand rabbits; PAF Acether 4 nmol/kg): 0.880 O.D.
- Behaviour: behavioural modifications (New-Zealand rabbits; [6]): No behavioural
- Behaviour: deaths (New-Zealand rabbits; [6]): No death
